Results published in patent US10449216B2, “Modulating drug effects against metabotropic glutamate receptor with extracellular calcium” (GEORGIA STATE UNIVERSITY RESEARCH FOUNDATION, INC., priority 2013, dated 2019).
“Also recorded” adds a separate entry of the source. Like-named read-outs stand apart in the source and are kept apart here.

Legend:
[1] = biological target: mGluR1 (Homo sapiens, UniProt Q13255); settings: mGluR1, Sp. Hs; cited from earlier work
[2] = biological target: mGluR1 (Rattus norvegicus, UniProt P23385); settings: mGluR1, Sp. Rn; cited from earlier work
[3] = biological target: T1, mGluR5 (Rattus norvegicus, UniProt P31424); settings: mGluR5, Sp. Rn; cited from earlier work
[4] = biological target: mGluR5 (Homo sapiens, UniProt P41594); settings: mGluR5, Sp. Hs; cited from earlier work
[5] = biological target: T2, mGluR1α E325I (Rattus norvegicus, UniProt P23385, E325I); test: Single cell Fura-2 [Ca^2+]i response in HEK293 cells transfected with mGluR1α variant E325I; format: cell-based; settings: HEK293, read-out: Maximal Response to L-Quis, E325I, normalized to maximal response of WT mGluR1α to L-Glu
T2 construct: expressed in transfected cells; host or cells: HEK293

[6] = biological target: T1, mGluR5; test: Intracellular Ca^2+ response/oscillation in mGluR5 transfected HEK293 cells; format: cell-based; set-up: expressed in transfected cells; host or cells: HEK293; settings: for Percentage of cells with oscillation as a response to L-Glu: low concentration of L-Glu
Experimental: HEK293 cells were fed on a Dulbecco's Modified Eagle Medium (DMEM) and 10% fetal bovine serum (Invitrogen) and cultured at 37° C. in a humidified incubator with 5% CO2. One day before transfection, HEK293 cells were grown on 22×44 mm coverslips and then were transfected with mGluR5 plasmid (received as a gift from Dr. Randy Hall, Emory University, Atlanta, Ga.) with the aid of lipofectamine 2000 (Invitrogen). mGluR5 transfected HEK293 cells were grown for 48 hours and then loaded with 4 µM Fura-2 AM in loading buffer containing 10 mM HEPES (pH 7.4), 140 mM NaCl, 5 mM KCl, 0.55 mM MgCl2 for 30 minutes at 37° C. The coverslips were then mounted in a bathing chamber on the stage of a fluorescence microscope. […] The ratio of fluorescence emitted at 510 nm resulting from excitation at 340 or 380 nm was analyzed to obtain the [Ca^2+]i response as a function of changes in [Ca^2+]o.
HEK293 cells were cultured and transfected as described above. Intracellular Ca^2+ concentration was recorded using the method as described previously. […]

[7] = biological target: T3, mGluR1α D322I (Rattus norvegicus, UniProt P23385, D322I); test: Single cell Fura-2 [Ca^2+]i response in HEK293 cells transfected with mGluR1α variant D322I; format: cell-based; settings: HEK293, read-out: Maximal Response to L-Quis, D322I, normalized to maximal response of WT mGluR1α to L-Glu
T3 construct: expressed in transfected cells; host or cells: HEK293

[8] = biological target: T4, mGluR1α D318I (Rattus norvegicus, UniProt P23385, D318I); test: [^3H]-L-Quis binding to membranes of HEK293 cells expressing D318I; settings: hypotonic buffer
T4 construct: expressed in transfected cells; host or cells: HEK293
Experimental: HEK293 cells transiently transfected with wild type mGluR1α or its mutants were maintained in a 5% CO2 37° C. incubator for an additional 48 hours as before. Cells were then collected in ice cold hypotonic buffer (20 mM HEPES, 100 mM NaCl, 5 mM MgCl2, 5 mM KCl, 0.5 mM EDTA, and 1% protease inhibitors at pH 7.0-7.5). The cell pellet was washed twice more using hypotonic buffer to remove the L-Glu in the cellular debris. The crude membrane protein (100 μg) was mixed with 30 nM [^3H]-L-Quis in 100 μL of hypotonic buffer. The nonspecific binding was determined by measuring bound [^3H]-L-Quis in the presence of 200 μM L-Glu. […] The reaction mixtures were incubated on ice for at least 1 hour, and the membrane-bound [^3H]-L-Quis was captured on filter paper using a Brandel cell harvester under vacuum. The filter paper was then transferred to scintillation fluid, and [^3H]-L-Quis was detected using a Beckman LS 6500 multi-purpose scintillation counter.

[9] = biological target: T5, WT mGluR1α (Rattus norvegicus, UniProt P23385); test: Single cell Fura-2 [Ca^2+]i response in HEK293 cells transiently transfected with WT mGluR1α; format: cell-based; settings: for Max. Res. to Ro 67-4853: normalized to maximal response of WT mGluR1α to L-Glu; for EC50: read-out: EC50 of Ro 67-4853
T5 construct: expressed in transfected cells; host or cells: HEK293
T5 sequence (P23385 19-1199): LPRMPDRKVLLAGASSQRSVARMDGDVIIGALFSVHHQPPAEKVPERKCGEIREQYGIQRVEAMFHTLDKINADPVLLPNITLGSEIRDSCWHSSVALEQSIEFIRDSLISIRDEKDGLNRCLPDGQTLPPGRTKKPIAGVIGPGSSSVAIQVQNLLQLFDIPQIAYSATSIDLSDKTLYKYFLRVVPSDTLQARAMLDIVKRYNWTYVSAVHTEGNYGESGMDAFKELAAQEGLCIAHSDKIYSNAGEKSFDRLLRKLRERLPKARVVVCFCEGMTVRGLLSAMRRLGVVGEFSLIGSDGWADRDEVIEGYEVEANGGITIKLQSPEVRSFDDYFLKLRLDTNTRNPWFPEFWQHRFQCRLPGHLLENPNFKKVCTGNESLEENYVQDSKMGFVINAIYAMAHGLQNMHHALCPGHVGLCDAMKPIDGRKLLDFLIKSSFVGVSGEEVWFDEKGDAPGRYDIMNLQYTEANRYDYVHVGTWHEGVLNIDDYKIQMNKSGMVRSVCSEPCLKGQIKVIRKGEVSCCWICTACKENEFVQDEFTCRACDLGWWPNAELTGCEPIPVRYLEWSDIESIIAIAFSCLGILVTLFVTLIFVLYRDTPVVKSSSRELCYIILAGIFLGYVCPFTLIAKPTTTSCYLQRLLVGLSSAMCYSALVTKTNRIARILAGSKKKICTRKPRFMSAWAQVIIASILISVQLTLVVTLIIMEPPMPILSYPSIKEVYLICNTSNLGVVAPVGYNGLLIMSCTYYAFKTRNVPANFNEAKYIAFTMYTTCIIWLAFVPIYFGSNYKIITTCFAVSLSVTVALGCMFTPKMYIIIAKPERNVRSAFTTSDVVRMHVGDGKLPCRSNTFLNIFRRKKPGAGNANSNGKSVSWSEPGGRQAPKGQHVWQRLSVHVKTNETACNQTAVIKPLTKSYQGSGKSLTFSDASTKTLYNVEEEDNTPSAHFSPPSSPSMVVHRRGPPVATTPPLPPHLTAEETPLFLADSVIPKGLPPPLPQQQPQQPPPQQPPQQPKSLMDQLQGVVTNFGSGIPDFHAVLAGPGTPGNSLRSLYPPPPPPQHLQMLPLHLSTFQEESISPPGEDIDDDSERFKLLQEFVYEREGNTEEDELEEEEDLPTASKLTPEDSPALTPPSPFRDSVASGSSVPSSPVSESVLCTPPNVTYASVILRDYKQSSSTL
Experimental: The methods for measuring [Ca^2+]i responses were as described above. In the presence of (s)-MCPG, the cells were incubated with 0.5 mM (s)-MCPG in a saline buffer for 30 more minutes after Fura-2 loading.
Fura-2AM was used for monitoring [Ca^2+]i in real time as described above. […] Cells loaded with Fura-2AM were mounted onto a chamber perfused with saline buffer.

T1 sequence (P31424 21-1203): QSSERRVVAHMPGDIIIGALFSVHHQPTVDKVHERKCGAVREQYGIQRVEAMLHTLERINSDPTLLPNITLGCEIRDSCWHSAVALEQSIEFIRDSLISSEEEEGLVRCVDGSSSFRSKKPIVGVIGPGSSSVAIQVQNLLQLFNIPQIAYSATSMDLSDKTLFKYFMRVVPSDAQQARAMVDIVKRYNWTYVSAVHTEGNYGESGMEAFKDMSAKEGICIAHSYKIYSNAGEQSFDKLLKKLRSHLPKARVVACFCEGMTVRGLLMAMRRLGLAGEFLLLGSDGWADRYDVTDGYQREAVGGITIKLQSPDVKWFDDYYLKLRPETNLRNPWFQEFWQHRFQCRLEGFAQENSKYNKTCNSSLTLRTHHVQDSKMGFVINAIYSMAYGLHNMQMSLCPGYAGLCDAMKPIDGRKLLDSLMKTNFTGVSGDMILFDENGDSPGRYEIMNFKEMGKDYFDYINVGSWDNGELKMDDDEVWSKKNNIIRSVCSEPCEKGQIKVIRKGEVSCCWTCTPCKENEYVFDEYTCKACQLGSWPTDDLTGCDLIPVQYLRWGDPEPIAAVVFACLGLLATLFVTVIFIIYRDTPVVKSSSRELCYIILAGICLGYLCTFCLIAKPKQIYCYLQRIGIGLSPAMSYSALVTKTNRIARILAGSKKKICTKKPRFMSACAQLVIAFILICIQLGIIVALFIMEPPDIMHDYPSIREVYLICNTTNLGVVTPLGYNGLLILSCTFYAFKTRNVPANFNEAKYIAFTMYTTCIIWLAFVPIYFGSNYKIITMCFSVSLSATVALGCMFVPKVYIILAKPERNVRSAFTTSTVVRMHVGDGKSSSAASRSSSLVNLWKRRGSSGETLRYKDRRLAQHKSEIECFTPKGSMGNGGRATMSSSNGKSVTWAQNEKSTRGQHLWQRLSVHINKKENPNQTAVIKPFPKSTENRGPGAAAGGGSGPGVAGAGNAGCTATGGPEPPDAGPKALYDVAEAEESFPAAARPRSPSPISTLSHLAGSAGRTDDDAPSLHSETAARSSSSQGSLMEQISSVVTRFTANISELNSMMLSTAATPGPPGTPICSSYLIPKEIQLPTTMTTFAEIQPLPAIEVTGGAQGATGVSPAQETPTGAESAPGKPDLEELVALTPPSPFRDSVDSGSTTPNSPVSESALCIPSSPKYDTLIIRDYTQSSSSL
Chain of mGluR1 (Rattus norvegicus, UniProt P23385) (P23385 19-1199): as the sequence (P23385 19-1199) above
Chain of mGluR1 (Homo sapiens, UniProt Q13255) (Q13255 19-1194): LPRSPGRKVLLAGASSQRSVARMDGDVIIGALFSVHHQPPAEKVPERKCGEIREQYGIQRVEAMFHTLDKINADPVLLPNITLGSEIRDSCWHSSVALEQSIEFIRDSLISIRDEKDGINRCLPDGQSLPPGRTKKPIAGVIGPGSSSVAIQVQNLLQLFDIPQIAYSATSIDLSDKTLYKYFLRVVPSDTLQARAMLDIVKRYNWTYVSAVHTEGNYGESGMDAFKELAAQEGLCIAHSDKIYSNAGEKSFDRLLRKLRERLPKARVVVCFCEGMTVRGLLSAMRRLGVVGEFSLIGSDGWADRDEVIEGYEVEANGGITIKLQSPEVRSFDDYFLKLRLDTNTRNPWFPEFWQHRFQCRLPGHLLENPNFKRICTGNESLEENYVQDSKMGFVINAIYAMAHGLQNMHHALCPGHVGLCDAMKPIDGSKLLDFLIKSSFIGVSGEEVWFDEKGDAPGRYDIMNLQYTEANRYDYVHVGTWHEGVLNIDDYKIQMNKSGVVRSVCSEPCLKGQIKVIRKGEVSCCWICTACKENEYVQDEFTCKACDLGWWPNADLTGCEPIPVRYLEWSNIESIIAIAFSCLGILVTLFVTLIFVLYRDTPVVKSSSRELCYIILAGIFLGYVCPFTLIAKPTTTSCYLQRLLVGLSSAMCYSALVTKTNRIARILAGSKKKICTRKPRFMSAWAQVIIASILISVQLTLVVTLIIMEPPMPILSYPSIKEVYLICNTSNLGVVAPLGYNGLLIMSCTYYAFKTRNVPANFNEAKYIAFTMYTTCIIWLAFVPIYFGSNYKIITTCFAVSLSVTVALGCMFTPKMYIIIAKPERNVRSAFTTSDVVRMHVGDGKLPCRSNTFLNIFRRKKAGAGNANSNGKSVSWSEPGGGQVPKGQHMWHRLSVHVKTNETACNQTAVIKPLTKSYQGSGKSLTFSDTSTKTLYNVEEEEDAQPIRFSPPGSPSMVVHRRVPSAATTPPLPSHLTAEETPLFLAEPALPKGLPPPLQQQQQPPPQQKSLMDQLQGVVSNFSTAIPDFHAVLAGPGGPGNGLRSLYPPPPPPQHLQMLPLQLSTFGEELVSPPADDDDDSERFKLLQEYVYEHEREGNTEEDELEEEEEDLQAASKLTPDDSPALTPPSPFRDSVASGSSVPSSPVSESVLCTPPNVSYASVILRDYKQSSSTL
Chain of mGluR5 (Homo sapiens, UniProt P41594) (P41594 21-1212): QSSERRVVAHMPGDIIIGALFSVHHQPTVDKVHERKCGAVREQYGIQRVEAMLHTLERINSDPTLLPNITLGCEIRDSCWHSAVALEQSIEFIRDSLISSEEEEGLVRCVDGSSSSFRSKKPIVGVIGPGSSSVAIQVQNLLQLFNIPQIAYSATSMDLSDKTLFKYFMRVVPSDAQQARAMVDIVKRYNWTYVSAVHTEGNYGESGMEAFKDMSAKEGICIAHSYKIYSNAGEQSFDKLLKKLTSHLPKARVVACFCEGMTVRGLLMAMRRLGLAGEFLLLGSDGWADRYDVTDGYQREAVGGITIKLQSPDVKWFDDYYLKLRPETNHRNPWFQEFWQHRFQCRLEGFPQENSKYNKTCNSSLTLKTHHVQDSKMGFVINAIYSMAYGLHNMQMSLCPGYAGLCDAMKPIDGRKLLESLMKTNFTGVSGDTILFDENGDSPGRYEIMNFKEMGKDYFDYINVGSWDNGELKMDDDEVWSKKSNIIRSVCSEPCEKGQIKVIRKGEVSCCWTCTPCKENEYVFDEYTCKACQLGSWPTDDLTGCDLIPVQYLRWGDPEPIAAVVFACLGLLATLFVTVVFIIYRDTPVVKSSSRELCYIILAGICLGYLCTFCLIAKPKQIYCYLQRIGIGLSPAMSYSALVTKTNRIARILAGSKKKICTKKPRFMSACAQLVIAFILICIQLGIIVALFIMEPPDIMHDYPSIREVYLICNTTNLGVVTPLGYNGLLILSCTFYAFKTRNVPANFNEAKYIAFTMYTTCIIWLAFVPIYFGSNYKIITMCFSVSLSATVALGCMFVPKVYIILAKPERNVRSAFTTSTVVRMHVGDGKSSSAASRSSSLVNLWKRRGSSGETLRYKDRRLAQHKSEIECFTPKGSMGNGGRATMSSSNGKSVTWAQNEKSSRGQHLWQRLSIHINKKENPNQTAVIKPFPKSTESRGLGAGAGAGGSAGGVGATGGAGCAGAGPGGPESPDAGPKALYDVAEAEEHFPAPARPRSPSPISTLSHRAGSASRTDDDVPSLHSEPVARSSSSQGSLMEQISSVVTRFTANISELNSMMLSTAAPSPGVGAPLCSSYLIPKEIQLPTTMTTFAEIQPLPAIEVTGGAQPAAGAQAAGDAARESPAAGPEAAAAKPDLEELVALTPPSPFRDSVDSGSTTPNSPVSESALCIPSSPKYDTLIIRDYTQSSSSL
T2 sequence (P23385 19-1199 E325I): as the sequence (P23385 19-1199) above, with E307I counted along it
T3 sequence (P23385 19-1199 D322I): as the sequence (P23385 19-1199) above, with D304I counted along it
T4 sequence (P23385 19-1199 D318I): as the sequence (P23385 19-1199) above, with D300I counted along it

COc1ccc(Nc2ncnc3ccc(OC)cc23)cc1 [LY456236]
Affinity (pIC50) [1]: 6.9 pIC50

CCOC(=O)NC(=O)C(c1ccccc1)c1ccccc1 [Ro01-6128]
Affinity (pKi) [2]: 7.5-7.7 pKi

N[C@H](C(=O)O)C1[C@@H](C(=O)O)[C@@H]1C(=O)O (stereo partly shown) [DCG-IV]
Affinity (pIC50) [3]: 4.7 pIC50 | Affinity (pKi) [2]: 4.1 pKi

O=C(c1ccc(F)cc1)N1CCC[C@H](c2nc(-c3ccc(F)cc3)no2)C1 [ADX-47273]
Affinity (pIC50) [3]: 6.5 pIC50

N[C@@]1(C(=O)O)CC[C@@H](C(=O)O)C1 [(1S,3R)-ACPD]
Affinity (pIC50) [3]: 5.7 pIC50

CCCOC(=O)c1[nH]c(C)c(C(=O)OC(C)C(C)(C)C)c1C (stereo not shown) [3,5-dimethyl PPP]
Affinity (pIC50) [2]: 7.8 pIC50

Cc1cccc(/C=C/c2ccccc2)n1 [SIB-1893]
Affinity (pIC50) [4]: 5.9-6.5 pIC50

O=C(Nc1cc(-c2ccccc2)nn1-c1ccccc1F)c1ccc([N+](=O)[O-])cc1 [VU-1545]
Affinity (pEC50) [4]: 8 pEC50

N[C@H](C(=O)O)c1cc(O)no1 [ibotenate]
Affinity (pIC50) [3]: 5.7 pIC50 | Affinity (pKi) [2]: 5.9-6.4 pKi

NC1(C(=O)O)CCc2cc(C(=O)O)ccc21 (stereo not shown) [AIDA]
Affinity (pA2) [1]: 4.2 pA2 | Affinity (pKi) [2]: 4 pKi

C=C1C[C@@H]2COC(=O)[C@]2(Cc2ccc3ccccc3c2)C1 [BAY 367620]
Affinity (pIC50) [2]: 6.8-8.0 pIC50

Cc1ccc(S(=O)(=O)N2CCC[C@H]2c2ccc(F)cc2)cc1 [Ro67-7476]
Affinity (pKi) [2]: 7.5-7.9 pKi

N[C@@H](Cn1oc(=O)[nH]c1=O)C(=O)O [L-Quis, L-Quisqualate]
Emax ([5]; [Ca^2+]o 0 mM): 60 ± 8% | Emax ([5]; [Ca^2+]o 1.8 mM): 88 ± 8% | mGluR5 response initiated by L-Quis ([6]; 0 mM Ca^2+ bath solution): almost could not initiate any mGluR5 response; also recorded: hardly showed any response | Percentage of cells with L-Quis-triggered response ([6]; absence of extracellular Ca^2+ addition): less than 20% | Percentage of cells with L-Quis-triggered response ([6]; with addition of extracellular Ca^2+, 5 nM L-Quis): more than 60% | Emax ([7]; [Ca^2+]o 0 mM): 80 ± 16% | Emax ([7]; [Ca^2+]o 1.8 mM): 96 ± 21% | [^3H]-L-Quis binding to the mutant [8]: eliminates L-Quis-binding | Affinity (pIC50) [3]: 7.5 pIC50 | Emax ([9]; HEK293, read-out: Maximal Response to L-Quis): 37 ± 4%

N[C@@H](CCC(=O)O)C(=O)O [L-Glu, L-glutamic acid]
Percentage of cells with oscillation as a response to L-Glu ([6]; 0.5 or 1.8 mM extracellular Ca^2+): more than 50% | Percentage of cells with oscillation as a response to L-Glu ([6]; without extracellular Ca^2+): less than 10%

Cc1cc(C(=O)O)ccc1[C@H](N)C(=O)O [LY367385]
Affinity (pIC50) [1]: 5.1 pIC50 | Affinity (pKi) [2]: 5.9 pKi

N[C@H](C(=O)O)c1ccc(C(=O)O)c(O)c1 [(S)-4C3HPG]
Affinity (pIC50) [3]: 5.6 pIC50 | Affinity (pKi) [1]: 5.8-6.0 pKi

CCCCOC(=O)NC(=O)C1c2ccccc2Oc2ccccc21 [Ro 67-4853, (9H-xanthene-9-carbonyl) carbamic acid butyl ester]
Stimulation of mGluR5 (intracellular Ca^2+ oscillation) ([6]; 0.5 mM Ca^2+, 5 nM): could lead to the stimulation of mGluR5; also recorded: caused high frequency Ca^2+ oscillation | Stimulation of mGluR5 (intracellular Ca^2+ response) ([6]; no Ca^2+ in the bath solution, 5 to 100 nM): no intracellular Ca^2+ response was observed; also recorded: could not stimulate mGluR5 | Max. Res. to Ro 67-4853 ([9]; [Ca^2+]o 0.5 mM): 50 ± 8 | EC50 ([9]; [Ca^2+]o 0.5 mM, pre-incubated with 0.5 mM Ca^2+ and 5 nM Ro 67-4853): 20.7 nM | Max. Res. to Ro 67-4853 ([9]; [Ca^2+]o 1.8 mM): 59 ± 4 | EC50 ([9]; [Ca^2+]o 1.8 mM): 10 nM | Affinity (pKi) [2]: 5.1 pKi

Cc1cc(C(=O)O)sc1C(N)C(=O)O (stereo not shown) [3-MATIDA]
Affinity (pIC50) [2]: 5.2 pIC50

COc1cc(-c2nc3ccccc3o2)ccc1CC#N [BOMA]
Affinity (pKi) [4]: 8.5 pKi

N[C@H](C(=O)O)[C@H]1C[C@@H]1C(=O)O [L-CCG-I]
Affinity (pIC50) [3]: 5.8 pIC50 | Affinity (pKi) [2]: 5.6 pKi

Cc1c(C(=O)N(C)C2CCCCC2)sc2nc3ccc(N)cc3n12 [YM298198]
Affinity (pIC50) [2]: 7.8 pIC50

Fc1cccc(/C=N/N=C/c2cccc(F)c2)c1 [DFB]
Affinity (pIC50) [4]: 5.6-8.5 pIC50

NC(C(=O)O)c1cc(O)cc(O)c1 (stereo not shown) [3,5-DHPG]
Affinity (pIC50) [3]: 5.4 pIC50 | Affinity (pKi) [2]: 5.8 pKi

Cc1ccc(O)c(N=Nc2ccccc2)n1 [SIB-1757]
Affinity (pIC50) [4]: 6.0-6.4 pIC50

NC(C(=O)O)c1cc(O)ccc1Cl (stereo not shown) [CHPG]
Affinity (pIC50) [4]: 3.4 pIC50

O=C(Cc1ccccc1)c1ccc2nc3c(cc2c1)CCCO3 [R214127]
Affinity (pIC50) [1]: 8.9 pIC50 | Affinity (pKi) [2]: 8.9 pKi

CN(C)c1nc(N)c(C(=O)Nc2ccccn2)nc1Cl [ACDPP]
Affinity (pIC50) [4]: 6.9 pIC50

CCn1c(C)nc(N2CCc3ccccc3CC2)c(C#N)c1=O [EM-TBPC]
Affinity (pIC50) [2]: 6.9 pIC50

N[C@H](C(=O)O)C12CC(c3nn[nH]n3)(C1)C2 [(S)-TBPG]
Affinity (pIC50) [2]: 4.2 pIC50

CN1CC(=O)NC1=NC(=O)Nc1cccc(Cl)c1 [fenobam]
Affinity (pIC50) [4]: 7.2 pIC50

CN(C)c1ccnc2sc3c(=O)n(N4CCCCCC4)cnc3c12 [A841720]
Affinity (pIC50) [1]: 8 pIC50

N[C@H](C(=O)O)C12CC(C(=O)O)(C1)C2 [(S)-(+)-CBPG]
Affinity (pIC50) [2]: 4.2 pIC50

N[C@H](C(=O)O)c1ccc(C(=O)O)cc1 [(S)-4CPG]
Affinity (pIC50) [3]: 4.6 pIC50 | Affinity (pKi) [2]: 5.4 pKi

Cc1nc(C#Cc2cccc(C#N)c2)cs1 [MTEB]
Affinity (pIC50) [4]: 8.7 pIC50

C[C@@](N)(C(=O)O)c1ccc(C(=O)O)cc1 [(s)-MCPG, (S)-α-Methyl-4-carboxyphenylglycine]
Affinity (pIC50) [3]: 3.7 pIC50 | Inhibition of activation of mGluR1α by L-Glu ([9]; 1.5 mM (s)-MCPG, 5 μM L-Glu): entirely blocks | Inhibition of responsiveness of mGluR1α to [Ca^2+]o ([9]; 2.0 mM MCPG, 5 mM [Ca^2+]o): does not completely inhibit | Affinity (pKi) [2]: 3.8 pKi

O=C(NC12CC3CC(CC(C3)C1)C2)c1cnc2ccccc2n1 [NPS2390]
Affinity (pKi) [2]: 8.9 pKi

CCCOC(=O)c1[nH]c(C)c(C(=O)O[C@@H](C)C(C)(C)C)c1C [DM-PPP]
Affinity (pIC50) [2]: 7.8 pIC50

N[C@H](C(=O)O)c1cccc(O)c1 [(S)-3HPG]
Affinity (pIC50) [3]: 5 pIC50 | Affinity (pIC50) [2]: 4.9 pIC50
